The subject of one data set is corn (Zea mays).
Test: not given
The conditions noted are these: in vivo, 7 days.
For `C=CCOC(=O)C1(Oc2cc(-n3c(=O)n(C)c(=S)n(C)c3=O)c(F)cc2Cl)CC1` [Compound I-5], the “Phytotoxicity Corn 1 WAT” value is 1.
Still for that read-out and setting: for `CCOC(=O)COC(=O)C1(Oc2cc(-n3c(=O)n(C)c(=S)n(C)c3=O)c(F)cc2Cl)CC1` [Compound I-14] the value was 1.

The test system of another data set is velvetleaf (Abutilon theophrasti). The data set is described as follows: Test method 1: upland field, post-emergence foliar application test (velvetleaf). Details: key: if there is no or almost no difference in the state of emergence or growth of test weeds at the time of investigation as compared with that of test weeds in an untreated control, the evaluation of the herbicidal efficacy is classified as “0”; if the test weeds are completely withered or emergence or growth of the test weeds is suppressed, the evaluation of the herbicidal efficacy is classified as “10”. Format: in vivo. As to conditions: dosage 1 gAI/ha, scale 0 to 10. The text has this:
Next, the herbicidal efficacy of the compound of the present invention is shown by test examples. In the following test examples, the evaluation of the herbicidal efficacy is classified into 0 to 10, where if there is no or almost no difference in the state of emergence or growth of test weeds at the time of investigation as compared with that of test weeds in an untreated control, the evaluation of the herbicidal efficacy is classified as “0”, and if the test weeds are completely withered or emergence or growth of the test weeds is suppressed, the evaluation of the herbicidal efficacy is classified as “10”. A pot is filled with a commercially available culture soil, and seeds of velvetleaf (Abutilon theophrasti) are sown in the pot. Thereafter, the seeds are covered with approximately 0.5 cm of soil, and each of the seeds is cultivated in a greenhouse for 13 days. Next, a predetermined amount of the test compound is dissolved in 1 mL of a DMF solution containing 2% of an adjuvant, and 18 mL of water is added thereto, thereby preparing a diluent. The diluent is uniformly sprayed over plants so as to give the plants a predetermined treatment amount. Thereafter, the plants are cultivated in the greenhouse for 20 days, and herbicidal efficacy is evaluated.
Turning to `C=CCOC(=O)C1(Oc2cc(-n3c(=O)n(C)c(=S)n(C)c3=O)c(F)cc2Cl)CC1` [Compound I-5], the “Herbicidal efficacy Velvetleaf 3 WAT” value stood at 10.
Take `CCOCCOC(=O)C(C)Oc1cc(-n2c(=O)n(C)c(=S)n(C)c2=O)c(F)cc1Cl` (stereo not shown) [Compound C-3]: the “Herbicidal efficacy Velvetleaf 3 WAT” value came to 1.
Still for that read-out and setting: the figure for `Cn1c(=S)n(C)c(=O)n(-c2cc(OC3CCCC3)c(Cl)cc2F)c1=O` [Compound C-1] is 1; for `CCOC(=O)COC(=O)C1(Oc2cc(-n3c(=O)n(C)c(=S)n(C)c3=O)c(F)cc2Cl)CC1` [Compound I-14] it is 10.
Regarding `C=CCOC(=O)C(C)Oc1cc(-n2c(=O)n(C)c(=S)n(C)c2=O)c(F)cc1Cl` (stereo not shown) [Compound C-2], the “Herbicidal efficacy Velvetleaf 3 WAT” value stood at 1.

Still in this data set, the particulars now being: dosage 2 gAI/ha, scale 0 to 10.
Take `C=CCOC(=O)C1(Oc2cc(-n3c(=O)n(C)c(=S)n(C)c3=O)c(F)cc2Cl)CC1` [Compound I-5]: the “Herbicidal efficacy Velvetleaf 3 WAT” value stood at 10.
On the same count and under the same terms, for `CCOCCOC(=O)C(C)Oc1cc(-n2c(=O)n(C)c(=S)n(C)c2=O)c(F)cc1Cl` (stereo not shown) [Compound C-3] the value was 1.
The same measure, in the same setting: for `Cn1c(=S)n(C)c(=O)n(-c2cc(OC3CCCC3)c(Cl)cc2F)c1=O` [Compound C-1] the value was 1.
`CCOC(=O)COC(=O)C1(Oc2cc(-n3c(=O)n(C)c(=S)n(C)c3=O)c(F)cc2Cl)CC1` [Compound I-14]: the “Herbicidal efficacy Velvetleaf 3 WAT” value turned out to be 10.
Consider `C=CCOC(=O)C(C)Oc1cc(-n2c(=O)n(C)c(=S)n(C)c2=O)c(F)cc1Cl` (stereo not shown) [Compound C-2], for which the “Herbicidal efficacy Velvetleaf 3 WAT” value came out at 1.

The test system of the next data set is waterhemp (Amaranthus tuberculatus=A. rudis). The data set is described as follows: Test method 3: upland field, post-emergence foliar application test, herbicidal efficacy against waterhemp. The data set is classed as in vivo. The conditions noted are these: dosage 8 gAI/ha, scale 0 to 10.
With `CCOC(=O)COC(=O)C1(Oc2cc(-n3c(=O)cc(C(F)(F)F)n(C)c3=O)c(F)cc2Cl)CC1` [Compound B-2], the “Herbicidal efficacy Waterhemp 1 WAT” value is listed as 9.
The same measure, in the same setting: the figure for `CCOC(=O)COC(=O)C1(Oc2cc(-n3c(=O)n(C)c(=S)n(C)c3=O)c(F)cc2Cl)CC1` [Compound I-14] is 9.

Still in this data set, the particulars now being: dosage 16 gAI/ha, scale 0 to 10.
On to `C=CCOC(=O)C1(Oc2cc(-n3c(=O)n(C)c(=S)n(C)c3=O)c(F)cc2Cl)CC1` [Compound I-5], for which the “Herbicidal efficacy Waterhemp 1 WAT” value amounted to 9.
On the same count and under the same terms, the figure for `CCOC(=O)COC(=O)C1(Oc2cc(-n3c(=O)cc(C(F)(F)F)n(C)c3=O)c(F)cc2Cl)CC1` [Compound B-2] is 9.
Same read-out and setting: for `CCOC(=O)COC(=O)C1(Oc2cc(-n3c(=O)n(C)c(=S)n(C)c3=O)c(F)cc2Cl)CC1` [Compound I-14] the value was 9; for `C=CCOC(=O)C1(Oc2cc(-n3c(=O)cc(C(F)(F)F)n(C)c3=O)c(F)cc2Cl)CC1` [Compound B-1], 9.

Staying with this data set, now noted: dosage 32 gAI/ha, scale 0 to 10.
Consider `C=CCOC(=O)C1(Oc2cc(-n3c(=O)n(C)c(=S)n(C)c3=O)c(F)cc2Cl)CC1` [Compound I-5], for which the “Herbicidal efficacy Waterhemp 1 WAT” value came to 9.
For the compound `C=CCOC(=O)C1(Oc2cc(-n3c(=O)cc(C(F)(F)F)n(C)c3=O)c(F)cc2Cl)CC1` [Compound B-1], the “Herbicidal efficacy Waterhemp 1 WAT” value was 9.

A further data set concerns velvetleaf. The data set can be described thus: Test method 3: upland field, post-emergence foliar application test, herbicidal efficacy against velvetleaf. Format: in vivo, Abutilon theophrasti. The conditions noted are these: dosage 8 gAI/ha, scale 0 to 10. On the set-up: key: if there is no or almost no difference in the state of emergence or growth of test weeds at the time of investigation as compared with that of test weeds in an untreated control, the evaluation of the herbicidal efficacy is classified as “0”; if the test weeds are completely withered or emergence or growth of the test weeds is suppressed, the evaluation of the herbicidal efficacy is classified as “10”.
In the case of `CCOC(=O)COC(=O)C1(Oc2cc(-n3c(=O)cc(C(F)(F)F)n(C)c3=O)c(F)cc2Cl)CC1` [Compound B-2], the “Herbicidal efficacy Velvetleaf 1 WAT” value came out at 10.
The same measure, in the same setting: for `CCOC(=O)COC(=O)C1(Oc2cc(-n3c(=O)n(C)c(=S)n(C)c3=O)c(F)cc2Cl)CC1` [Compound I-14] the value was 10.

Still in this data set, the particulars now being: dosage 16 gAI/ha, scale 0 to 10.
Regarding `C=CCOC(=O)C1(Oc2cc(-n3c(=O)n(C)c(=S)n(C)c3=O)c(F)cc2Cl)CC1` [Compound I-5], the “Herbicidal efficacy Velvetleaf 1 WAT” value is 10.
The same measure, in the same setting: the figure for `CCOC(=O)COC(=O)C1(Oc2cc(-n3c(=O)cc(C(F)(F)F)n(C)c3=O)c(F)cc2Cl)CC1` [Compound B-2] is 10; for `CCOC(=O)COC(=O)C1(Oc2cc(-n3c(=O)n(C)c(=S)n(C)c3=O)c(F)cc2Cl)CC1` [Compound I-14] it is 10.
Regarding `C=CCOC(=O)C1(Oc2cc(-n3c(=O)cc(C(F)(F)F)n(C)c3=O)c(F)cc2Cl)CC1` [Compound B-1], the “Herbicidal efficacy Velvetleaf 1 WAT” value is listed as 10.

Still in this data set, the particulars now being: dosage 32 gAI/ha, scale 0 to 10.
Consider `C=CCOC(=O)C1(Oc2cc(-n3c(=O)n(C)c(=S)n(C)c3=O)c(F)cc2Cl)CC1` [Compound I-5], for which the “Herbicidal efficacy Velvetleaf 1 WAT” value is 10.
With `C=CCOC(=O)C1(Oc2cc(-n3c(=O)cc(C(F)(F)F)n(C)c3=O)c(F)cc2Cl)CC1` [Compound B-1], the “Herbicidal efficacy Velvetleaf 1 WAT” value amounted to 10.

The values are drawn from patent US20250368609A1, “TRIAZINANE COMPOUND AND COMPOSITION CONTAINING SAME” (SUMITOMO CHEMICAL COMPANY, LIMITED, priority 2022, published 2025).
